From patent publication US20260262643A1, “HERBICIDAL BENZOXAZINES” (FMC CORPORATION, priority 2022, published 2026) come the findings set out here.

In test [1] the test system is ragweed. Kind of test: Test C postemergence. It is filed as in vivo, Ambrosia artemisiifolia. Particulars: Postemergence, 1000 g ai/ha, 10 days, visual 0 to 100 scale (0 no effect, 100 complete control). Put shortly:
(§1)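 Seeds in loam–sand blend received preemergence directed soil spray of test chemicals in non-phytotoxic solvent with surfactant; postemergence treatment was applied at one- to two-leaf stage (2–10 cm). After 10 days in greenhouse, injury rated visually versus untreated controls, 0 (no effect) to 100 (complete control).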

The test system of another test is ducksalad. Kind of test: Test D flooded paddy test. It is filed as in vivo, Heteranthera limosa. Particulars: 250 g ai/ha, applied to paddy water, visual rating after 13 to 14 days, scale 0 to 100 (0 no effect, 100 complete control). An outline of the steps:
(§2)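 At the 2-leaf stage, floodwater 3 cm deep received the test compound; that depth persisted throughout. Plants scored visually 13 to 14 days on, 0 (no effect) to 100 (complete control), dash indicating no result.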

The subject of test [2] is kochia. The test is described as follows: Test C preemergence. The format is in vivo, Bassia scoparia. Particulars: Preemergence, 1000 g ai/ha; visual rating after 10 days, 0 to 100 scale (0 no effect, 100 complete control). An outline of the steps: as §1
Test [3] relates to ryegrass, Italian. The test is described as follows: Test C preemergence. The format is in vivo, Lolium multiflorum. Particulars: Preemergence, 1000 g ai/ha; visual rating after 10 days, 0 to 100 scale (0 no effect, 100 complete control). An outline of the steps:
as §1

In test [4] the test system is blackgrass. Kind of test: Test C postemergence. Particulars: Postemergence, 1000 g ai/ha, 10 days, visual 0 to 100 scale (0 no effect, 100 complete control). It is filed as in vivo, Alopecurus myosuroides. An outline of the steps:
as §1

Another test relates to horseweed. Kind of test: Test C postemergence. Particulars: Postemergence, 1000 g ai/ha, 10 days, visual 0 to 100 scale (0 no effect, 100 complete control). It is filed as in vivo, Erigeron canadensis. Put shortly: as §1
For test [5], the system named is barnyardgrass. The test is described as follows: Test C postemergence. It is filed as in vivo, Echinochloa crusgalli. Particulars: Postemergence, 1000 g ai/ha, 10 days, visual 0 to 100 scale (0 no effect, 100 complete control). Put shortly:
as §1

A further test relates to sedge, umbrella. The test is described as follows: Test D flooded paddy test. It is filed as in vivo, Cyperus difformis. Particulars: 250 g ai/ha, applied to paddy water, visual rating after 13 to 14 days, scale 0 to 100 (0 no effect, 100 complete control). An outline of the steps: as §2
Test [6] relates to green foxtail. The test is described as follows: Test C preemergence. It is filed as in vivo, Setaria viridis. Particulars: Preemergence, 1000 g ai/ha; visual rating after 10 days, 0 to 100 scale (0 no effect, 100 complete control). Put shortly: as §1
In test [7] the test system is pigweed, palmer. Kind of test: Test C postemergence. The format is in vivo, Amaranthus palmeri. Particulars: Postemergence, 1000 g ai/ha, 10 days, visual 0 to 100 scale (0 no effect, 100 complete control). Put shortly: as §1
Another test has as its system galium. The test is described as follows: Test C postemergence. The format is in vivo, Galium aparine. Particulars: Postemergence, 1000 g ai/ha, 10 days, visual 0 to 100 scale (0 no effect, 100 complete control). Put shortly: as §1
In test [8] the test system is pigweed, palmer. The test is described as follows: Test C preemergence. The format is in vivo, Amaranthus palmeri. Particulars: Preemergence, 1000 g ai/ha; visual rating after 10 days, 0 to 100 scale (0 no effect, 100 complete control). An outline of the steps: as §1
The subject of test [9] is blackgrass. The test is described as follows: Test C preemergence. Particulars: Preemergence, 1000 g ai/ha; visual rating after 10 days, 0 to 100 scale (0 no effect, 100 complete control). It is filed as in vivo, Alopecurus myosuroides. An outline of the steps:
as §1

The test system of test [10] is ryegrass, Italian. Kind of test: Test C postemergence. The format is in vivo, Lolium multiflorum. Particulars: Postemergence, 1000 g ai/ha, 10 days, visual 0 to 100 scale (0 no effect, 100 complete control). Put shortly:
as §1

Another test deals with rice. Kind of test: Test D flooded paddy test. Particulars: 250 g ai/ha, applied to paddy water, visual rating after 13 to 14 days, scale 0 to 100 (0 no effect, 100 complete control). It is filed as in vivo, Oryza sativa. An outline of the steps:
as §2

The subject of test [11] is ragweed. The test is described as follows: Test C preemergence. The format is in vivo, Ambrosia artemisiifolia. Particulars: Preemergence, 1000 g ai/ha; visual rating after 10 days, 0 to 100 scale (0 no effect, 100 complete control). An outline of the steps: as §1
The subject of test [12] is kochia. The test is described as follows: Test C postemergence. Particulars: Postemergence, 1000 g ai/ha, 10 days, visual 0 to 100 scale (0 no effect, 100 complete control). The format is in vivo, Bassia scoparia. Put shortly: as §1
For test [13], the system named is green foxtail. Kind of test: Test C postemergence. It is filed as in vivo, Setaria viridis. Particulars: Postemergence, 1000 g ai/ha, 10 days, visual 0 to 100 scale (0 no effect, 100 complete control). An outline of the steps: as §1
Test [14] has as its system barnyardgrass. The test is described as follows: Test D flooded paddy test. The format is in vivo, Echinochloa crus-galli. Particulars: 250 g ai/ha, applied to paddy water, visual rating after 13 to 14 days, scale 0 to 100 (0 no effect, 100 complete control). An outline of the steps:
as §2

For test [15], the system named is barnyardgrass. Kind of test: Test C preemergence. It is filed as in vivo, Echinochloa crusgalli. Particulars: Preemergence, 1000 g ai/ha; visual rating after 10 days, 0 to 100 scale (0 no effect, 100 complete control). Put shortly: as §1

With `Cc1ncc(-c2cccc(C(=O)N3C[C@H](C)Oc4c(Cl)cccc43)c2)s1` [Compound 296], the “Plant response rating, Ragweed” value in the test on ragweed [1] turned out to be 80; in the test with ragweed [11], 70. Further, the “Plant response rating, Ducksalad (Flood)” value with ducksalad is 0. Moreover, the “Plant response rating, Kochia” value in the test with kochia [2] and in the test on kochia [12] was 90 each time. Further, the “Plant response rating, Ryegrass, Italian” value in the test with ryegrass, Italian [3] amounted to 80; in the test on ryegrass, Italian [10], 30. The figures for the “Plant response rating, Blackgrass” value in the test with blackgrass [4] and with blackgrass [9] were 80 and 50, respectively. The “Plant response rating, Horseweed” value with horseweed turned out to be 60. For the same compound, the “Plant response rating, Barnyardgrass” value with barnyardgrass [5] is given as 50; with barnyardgrass [15] it was 100. Moreover, in the test on sedge, umbrella, the “Plant response rating, Sedge, Umbrella (Flood)” value is recorded as 0. Also, the entries for the “Plant response rating, Foxtail, Green” value in the test on green foxtail [6] and in the test on green foxtail [13] were 100 and 80, respectively. The “Plant response rating, Pigweed, Palmer” value in the test on pigweed, palmer [7] was 90; in the test on pigweed, palmer [8], 100. Moreover, the “Plant response rating, Galium” value in the test with galium came to 100. In addition, the “Plant response rating, Rice (Flood)” value in the test with rice was found to be 0. Besides, the “Plant response rating, Barnyardgrass (Flood)” value in the test on barnyardgrass [14] worked out at 0.
